Results: patent US20210309652A1, “ISOXAZOLINE COMPOUNDS FOR CONTROLLING INVERTEBRATE PESTS” (priority 2018, published 2021)

Legend:
Type in all cases: in vivo
[1] = test system: cotton melon aphid (Aphis gossypii (Glover)); assay: Test E: control of cotton melon aphid on okra plant, contact and/or systemic; conditions: 144 h
Procedure: (§1) Test Compounds were formulated using a solution containing 10% acetone, 90% water and 300 ppm Activator 90® non-ionic surfactant (Loveland Products, Loveland, Colo., USA). The formulated Compounds were applied in 1 mL of liquid through an atomizer nozzle positioned 1.27 cm (0.5 inches) above the top of each test unit. Test Compounds were sprayed at the rates indicated, and each test was replicated three times.
For evaluating control of cotton melon aphid (Aphis gossypii (Glover)) through contact and/or systemic means, the test unit consisted of a small open container with a 5-day-old okra plant inside. This was pre-infested with 30-40 insects on a piece of leaf according to the cut-leaf method, and the soil of the test unit was covered with a layer of sand.
Test Compounds were formulated and sprayed at 250, 50 and 10 ppm. After spraying, the test units were maintained in a growth chamber for 6 days at 19° C. and 70% relative humidity. Each test unit was then visually assessed for insect mortality.

[2] = test system: corn earworm [Helicoverpa zea (Boddie)]; assay: Test H: control of corn earworm on treated cotton leaf pieces; conditions: 96 h
Procedure: (§2) For evaluating control of beet army worm [Spodoptera exigua (Hübner)], corn earworm [Helicoverpa zea (Boddie)], and cabbage looper [Trichoplusia ni (Hübner)], the test unit consisted of 4-inch diameter pots with 3-4 week old soybean (for S. exigua) or cotton (for H. zea and T. ni) plants inside. Plants were treated with test Compound sprayed to runoff using a hand-held spray nozzle. Test Compounds were formulated and sprayed at 5 rates. Treated plants dried for 1 hour. Leaves of treated plants were cut into pieces (approximately 4×3 cm), and pieces were placed in cells of plastic trays that each contained agar to maintain humidity. Each cell was infested with a single second-instar larva which represented a separate replicate. Each rate was represented by 16-24 larvae. Cells were sealed with lids. Trays were held for 4 days in a growth chamber with a 16:8-hour (Light:Dark) cycle at 25° C. and 70% relative humidity.
(§3) Treatments were evaluated by counting the number of live and dead larvae and by visually estimating the percentage of feeding on plant material using a 0-10 rating scale, corresponding to 10% increases from 0-100% feeding.

[3] = test system: beet army worm [Spodoptera exigua (Hübner)]; assay: Test H: control of beet armyworm on treated soybean leaf pieces; conditions: 96 h
Procedure: as §2, §3

[4] = test system: potato leafhopper (Empoasca fabae (Harris)); assay: Test C: control of potato leafhopper on Soleil bean plant, contact and/or systemic; conditions: 144 h
Procedure: as §1
For evaluating control of potato leafhopper (Empoasca fabae (Harris)) through contact and/or systemic means, the test unit consisted of a small open container with a 5-6-day-old Soleil bean plant (primary leaves emerged) inside. White sand was added to the top of the soil, and one of the primary leaves was excised prior to application of the test Compound.
Test Compounds were formulated and sprayed at 250, 50 and 10 ppm. After spraying of the formulated test Compound, the test units were allowed to dry for 1 hour before they were post-infested with 5 potato leafhoppers (18-to-21-day-old adults). A black, screened cap was placed on the top of the test unit, and the test units were held for 6 days in a growth chamber at 20° C. and 70% relative humidity. Each test unit was then visually assessed for insect mortality.

[5] = test system: green peach aphid (Myzus persicae (Sulzer)); assay: Test D: control of green peach aphid on radish plant, contact and/or systemic; conditions: 144 h
Procedure: as §1
For evaluating control of green peach aphid (Myzus persicae (Sulzer)) through contact and/or systemic means, the test unit consisted of a small open container with a 12-15-day-old radish plant inside. This was pre-infested by placing on a leaf of the test plant 30-40 aphids on a piece of leaf excised from a culture plant (cut-leaf method). The aphids moved onto the test plant as the leaf piece desiccated. After pre-infestation, the soil of the test unit was covered with a layer of sand.
Test Compounds were formulated and sprayed at 250 and 50 ppm. After spraying of the formulated test Compound, each test unit was allowed to dry for 1 hour and then a black, screened cap was placed on top. The test units were held for 6 days in a growth chamber at 19-21° C. and 50-70% relative humidity. Each test unit was then visually assessed for insect mortality.

[6] = test system: Western Flower Thrips (Frankliniella occidentalis (Pergande)); assay: Test G: control of Western Flower Thrips on Soleil bean plant, contact and/or systemic; conditions: sprayed at 10 ppm; 6 days
Procedure: as §1
For evaluating control of the Western Flower Thrips (Frankliniella occidentalis (Pergande)) through contact and/or systemic means, the test unit consisted of a small open container with a 5-7-day-old Soleil bean plant inside.
Test Compounds were formulated and sprayed at 250, 50, 10 and 2 ppm. After spraying, the test units were allowed to dry for 1 hour, and then ˜60 thrips (adults and nymphs) were added to each unit. A black, screened cap was placed on top, and the test units were held for 6 days at 25° C. and 45-55% relative humidity. Each test unit was then visually assessed for plant damage and insect mortality.

[7] = test system: cabbage looper [Trichoplusia ni (Hübner)]; assay: Test H: control of cabbage looper on treated cotton leaf pieces; conditions: 96 h
Procedure: as §2, §3

Row | Compound | mortality at 10 ppm [1] [%] | mortality at 1 ppm [2] [%] | mortality at 10 ppm [2] [%] | mortality at 1 ppm [3] [%] | mortality at 10 ppm [3] [%] | mortality at 10 ppm [4] [%] | mortality at 10 ppm [5] [%] | other results
1 | O=C(NC1C[S+]([O-])C1)c1ccc(C2=NOC(c3cc(Cl)c(F)c(Cl)c3)(C(F)(F)F)C2)c2ccoc12 (single isomer, unassigned) [Compound 57, 4-(5-(3,5-dichloro-4-fluorophenyl)-5-(trifluoromethyl)-4,5-dihydroisoxazol-3-yl)-N-(1-oxidothietan-3-yl)benzofuran-7-carboxamide] | ≥ 80 | ≥ 80 | ≥ 80 | ≥ 80 | ≥ 80 | ≥ 80 | ≥ 80 | 
2 | CSCCNC(=O)c1ccc(C2=NOC(c3cc(Cl)c(F)c(Cl)c3)(C(F)(F)F)C2)c2ccoc12 (centres unmarked) [Compound 1] |  |  |  |  |  |  |  | control efficacy: plant damage (30% or less plant damage and/or 100% mortality) [6]: ≤ 30%
3 | O=C(NCc1ncccn1)c1ccc(C2=NOC(c3cc(Cl)c(F)c(Cl)c3)(C(F)(F)F)C2)c2ccsc12 (centres unmarked) [Compound 20, 4-[5-(3,5-dichloro-4-fluorophenyl)-4,5-dihydro-5-(trifluoromethyl)-3-isoxazolyl]-N-(2-pyrimidinylmethyl)benzo[b]thiophene-7-carboxamide] |  |  |  |  |  | ≥ 80 |  | mortality at 50 ppm [1]: ≥ 80%; mortality at 50 ppm [4]: ≥ 80%; mortality at 50 ppm [5]: ≥ 80%
4 | O=C(NC1CSC1)c1ccc(C2=NOC(c3cc(Cl)c(F)c(Cl)c3)(C(F)(F)F)C2)c2ccoc12 (centres unmarked) [Compound 55, 4-(5-(3,5-dichloro-4-fluorophenyl)-5-(trifluoromethyl)-4,5-dihydroisoxazol-3-yl)-N-(thietan-3-yl)benzofuran-7-carboxamide] | ≥ 80 |  |  |  |  | ≥ 80 | ≥ 80 | 
5 | O=C(NC1CS(=O)(=O)C1)c1ccc(C2=NOC(c3cc(Cl)c(F)c(Cl)c3)(C(F)(F)F)C2)c2ccoc12 (centres unmarked) [Compound 56, 4-[5-(3,5-dichloro-4-fluorophenyl)-4,5-dihydro-5-(trifluoromethyl)-3-isoxazolyl]-N-(1,1-dioxido-3-thietanyl)-7-benzofurancarboxamide] |  | ≥ 80 | ≥ 80 | ≥ 80 | ≥ 80 | ≥ 80 |  | 
6 | CC(=O)NCc1ccc(C2=NOC(c3cc(Cl)cc(Cl)c3)(C(F)(F)F)C2)c2ccoc12 (centres unmarked) [Compound 79, N-[[4-[5-(3,5-dichlorophenyl)-5-(trifluoromethyl)-4H-1,2-oxazol-3-yl]-1-benzofuran-7-yl]methyl]acetamide] | ≥ 80 | ≥ 80 |  |  |  | ≥ 80 |  | 
7 | CC(=O)NCc1ccc(C2=NOC(c3cc(Cl)c(F)c(Cl)c3)(C(F)(F)F)C2)c2ccoc12 (centres unmarked) [Compound 83, N-[[4-[5-(3,5-dichloro-4-fluorophenyl)-4,5-dihydro-5-(trifluoromethyl)-3-isoxazolyl]-7-benzofuranyl]methyl]acetamide] | ≥ 80 | ≥ 80 |  | ≥ 80 |  | ≥ 80 | ≥ 80 | 
8 | C[C@H](NC(=O)c1ccc(C2=NOC(c3cc(Cl)cc(Cl)c3)(C(F)(F)F)C2)c2sccc12)C(N)=O (stereo partly drawn) [Compound 101, N-[(1S)-2-amino-1-methyl-2-oxo-ethyl]-7-[5-(3,5-dichlorophenyl)-5-(trifluoromethyl)-4H-isoxazol-3-yl]benzothiophene-4-carboxamide] |  | ≥ 80 | ≥ 80 | ≥ 80 | ≥ 80 | ≥ 80 |  | mortality at 1 ppm [7]: ≥ 80%; mortality at 10 ppm [7]: ≥ 80%
